# Experimental data as given in patent US9409952B2, “Peptide-compound cyclization method” (Chugai Seiyaku Kabushiki Kaisha, priority 2011, dated 2016).
# Positions of bridges follow the written chain, without caps; N, C: chain ends. Non-standard residues stand in square brackets, D forms with d. Residues, ends and D or L forms follow the SMILES beside them. *: point of attachment. NMeF = CN[C@@H](Cc1ccccc1)C(=O)O; NMeI = CC[C@H](C)[C@H](NC)C(=O)O; NMeL = CN[C@@H](CC(C)C)C(=O)O; NMeV = CN[C@H](C(=O)O)C(C)C; NMeA = CN[C@@H](C)C(=O)O; Piperidide = C1CCN(*)CC1; dNMeA = CN[C@H](C)C(=O)O; Sar = CNCC(=O)O; tBu = CC(C)(C)*
# Assay: PAMPA (parallel artificial membrane permeability assay)
# Type: in vitro ADME
# Details: PAMPA, pH 6.5
# Method: 4 μL of a phospholipid-organic solvent solution composed of 10% (w/v) of egg lecithin, 0.5% (w/v) of cholesterol and dodecane (all purchased from Fluka) was added to a Millipore 96-well membrane filter (hydrophobic PVDF (polyvinylidene difluoride), pore size 0.45 microm) (purchased from Millipore Japan) to make an artificial phospholipid membrane.
# A DMSO solution containing the compound at a concentration of 10 mM was added in a percentage of 0.5% (v/v) to a 50 mM MOPSO buffer, pH 6.5, containing 5.0% (w/v) of glycocholic acid, and 330 μL of the mixture was added to a 96-well plate made of Teflon (donor plate). The above artificial phospholipid membrane plate was attached onto the donor plate, and 280 μL of a solution obtained by adding DMSO in a percentage of 0.5% (v/v) to a 50 mM MOPSO buffer, pH 6.5, containing 5.0% (w/w) of glycocholic acid was added onto the artificial phospholipid membrane (acceptor plate). These plates were allowed to stand at 37° C. for 18 hours, after which the concentrations of the compound in the solutions in the donor plate and the acceptor plate were measured by LC/MS or LC/UV, and the membrane permeation rate of the compound (Pe) was calculated by the following formulas (1) and (2), where t is the testing time, A is the membrane filter area, VD is the amount of the donor solution, VA is the amount of the acceptor solution, CD,t is the concentration of the compound in the donor solution at the time t, and CA,t is the concentration of the compound in the acceptor solution at the time t.
row,SMILES,"Papp at 18 hours, 50 µM [×10⁻⁶ cm/s]"
1,CC[C@H](C)[C@H]1C(=O)N[C@H](C(=O)N2CCCCC2)CC(=O)N[C@@H](C)C(=O)N(C)[C@@H](C)C(=O)N(C)[C@@H](Cc2ccccc2)C(=O)N(C)[C@@H](CC(C)C)C(=O)N[C@@H]([C@@H](C)O)C(=O)N(C)CC(=O)N(C)[C@@H](CC(C)C)C(=O)N[C@@H](COC(C)(C)C)C(=O)N1C [DP-36] (A[NMeA][NMeF][NMeL]T[Sar][NMeL]S(tBu)[NMeI]D-Piperidide; lactam N-10),27
2,CC[C@H](C)[C@H]1C(=O)N[C@H](C(=O)N2CCCCC2)CC(=O)N(C)CC(=O)N(C)[C@@H](CC(C)C)C(=O)N[C@@H](C)C(=O)N(C)[C@@H](CC(C)C)C(=O)N(C)[C@@H](Cc2ccccc2)C(=O)N(C)[C@@H](CC(C)C)C(=O)N(C)[C@@H](Cc2ccccc2)C(=O)N[C@@H]([C@@H](C)O)C(=O)N(C)[C@@H](C)C(=O)N1C [DP-70] ([Sar][NMeL]A[NMeL][NMeF][NMeL][NMeF]T[NMeA][NMeI]D-Piperidide; lactam N-11),40
3,CC[C@H](C)[C@H]1C(=O)N[C@H](C(=O)N2CCCCC2)CC(=O)N[C@H](C)C(=O)N[C@@H]([C@@H](C)O)C(=O)N(C)[C@@H](C)C(=O)N(C)[C@@H](C(C)C)C(=O)N[C@@H](Cc2ccccc2)C(=O)N(C)CC(=O)N(C)[C@@H](CC(C)C)C(=O)N[C@@H](C)C(=O)N1C [DP-71] ([dA]T[NMeA][NMeV]F[Sar][NMeL]A[NMeI]D-Piperidide; lactam N-10),5.4
4,CC(C)C[C@@H]1NC(=O)[C@H](Cc2ccccc2)N(C)C(=O)[C@@H](C(C)C)NC(=O)C[C@@H](C(=O)N2CCCCC2)NC(=O)[C@H](C(C)C)N(C)C(=O)[C@H](Cc2ccccc2)N(C)C(=O)[C@H](COC(C)(C)C)NC(=O)[C@H](CC(C)C)N(C)C(=O)CN(C)C(=O)[C@H]([C@@H](C)O)NC(=O)[C@H](CC(C)C)N(C)C1=O [DP-149] ([dV][NMeF]L[NMeL]T[Sar][NMeL]S(tBu)[NMeF][NMeV]D-Piperidide; lactam N-11),17
5,CC[C@H](C)[C@@H]1NC(=O)[C@H](CC(C)C)N(C)C(=O)[C@H](Cc2ccccc2)N(C)C(=O)[C@H]([C@@H](C)O)NC(=O)[C@H](CC(C)C)N(C)C(=O)[C@H](CC(C)C)N(C)C(=O)[C@H](C)N(C)C(=O)C[C@@H](C(=O)N2CCCCC2)NC(=O)[C@H](CC(C)C)NC(=O)[C@H](Cc2ccccc2)N(C)C(=O)[C@H](C)N(C)C1=O [DP-154] ([NMeA][NMeL][NMeL]T[NMeF][NMeL]I[NMeA][NMeF]LD-Piperidide; lactam N-11),9.3
6,CC[C@H](C)[C@H]1C(=O)N[C@@H]([C@@H](C)O)C(=O)N[C@@H](Cc2ccccc2)C(=O)N2CCC[C@H]2C(=O)NCC(=O)N(C)[C@@H](CC(C)C)C(=O)N[C@H](C(=O)N(C)[C@@H](Cc2ccccc2)C(=O)N[C@@H](C)C(=O)N2CCCCC2)CC(=O)N[C@H](C(C)C)C(=O)N[C@@H](Cc2ccccc2)C(=O)N(C)[C@@H](CC(C)C)C(=O)N[C@@H](CC(C)C)C(=O)N1C [DP-278] ([dV]F[NMeL]L[NMeI]TFPG[NMeL]D[NMeF]A-Piperidide; lactam N-11),1.5
7,CC[C@H](C)[C@@H]1NC(=O)[C@H](C)N(C)C(=O)C[C@@H](C(=O)N(C)[C@@H](Cc2ccccc2)C(=O)N[C@@H](C)C(=O)N2CCCCC2)NC(=O)[C@H](Cc2ccccc2)N(C)C(=O)CN(C)C(=O)[C@H]([C@@H](C)O)NC(=O)[C@H](C)N(C)C(=O)[C@H](C(C)C)N(C)C(=O)[C@H](CC(C)C)N(C)C(=O)[C@H](Cc2ccccc2)NC(=O)[C@H](CC(C)C)N(C)C1=O [DP-279] ([NMeA]I[NMeL]F[NMeL][NMeV][NMeA]T[Sar][NMeF]D[NMeF]A-Piperidide; lactam N-11),15

# Same assay, conditions: PAMPA; membrane permeation rate (Pe); 50 mM MOPSO buffer pH 6.5 with 5.0% glycocholic acid, 37° C., 18 hours; read-out: iPAMPA Pe
row,SMILES,"Papp at 18 hours, 50 µM [×10⁻⁶ cm/s]"
1,CC(C)C[C@@H]1NC(=O)[C@H](Cc2ccccc2)N(C)C(=O)[C@H](C)NC(=O)[C@H](C)N(C)C(=O)[C@H]([C@@H](C)O)NC(=O)[C@H](CC(C)C)N(C)C(=O)[C@H](C)N(C)C(=O)C[C@@H](C(=O)N2CCCCC2)NC(=O)[C@H](CC(C)C)N(C)C(=O)[C@H](Cc2ccccc2)N(C)C(=O)[C@H](CC(C)C)N(C)C1=O [DP-156] ([NMeA][NMeL]T[NMeA]A[NMeF]L[NMeL][NMeF][NMeL]D-Piperidide; lactam N-11),24
2,CC(C)C[C@H]1C(=O)N(C)[C@@H](Cc2ccccc2)C(=O)N(C)[C@@H](Cc2ccccc2)C(=O)N[C@@H]([C@@H](C)O)C(=O)N(C)[C@@H](C)C(=O)N(C)[C@@H](CC(C)C)C(=O)N[C@H](C(=O)N2CCCCC2)CC(=O)N(C)[C@H](C)C(=O)N(C)[C@@H](CC(C)C)C(=O)N(C)[C@@H](CC(C)C)C(=O)N[C@@H](C)C(=O)N1C [DP-166] ([dNMeA][NMeL][NMeL]A[NMeL][NMeF][NMeF]T[NMeA][NMeL]D-Piperidide; lactam N-11),55
3,CC[C@H](C)[C@@H]1NC(=O)[C@H](C)NC(=O)C[C@@H](C(=O)N(C)[C@@H](Cc2ccccc2)C(=O)N[C@@H](C)C(=O)N2CCCCC2)NC(=O)[C@H](Cc2ccccc2)N(C)C(=O)[C@H](CC(C)C)N(C)C(=O)[C@H](C)N(C)C(=O)[C@H]([C@@H](C)O)NC(=O)[C@H](Cc2ccccc2)N(C)C(=O)[C@H](CC(C)C)N(C)C(=O)[C@H](C)N(C)C(=O)[C@H](CC(C)C)N(C)C1=O [DP-178] (AI[NMeL][NMeA][NMeL][NMeF]T[NMeA][NMeL][NMeF]D[NMeF]A-Piperidide; lactam N-11),1
4,CC(C)C[C@H]1C(=O)N(C)[C@@H](CC(C)C)C(=O)N(C)[C@@H](Cc2ccccc2)C(=O)N[C@@H]([C@@H](C)O)C(=O)N(C)[C@@H](C)C(=O)N(C)[C@@H](CC(C)C)C(=O)N(C)[C@@H](Cc2ccccc2)C(=O)N[C@H](C(=O)N(C)[C@@H](Cc2ccccc2)C(=O)N[C@@H](C)C(=O)N2CCCCC2)CC(=O)N(C)[C@H](C)C(=O)N(C)[C@@H](CC(C)C)C(=O)N[C@@H](C)C(=O)N1C [DP-184] ([dNMeA][NMeL]A[NMeL][NMeL][NMeF]T[NMeA][NMeL][NMeF]D[NMeF]A-Piperidide; lactam N-11),1.3
5,CC[C@H](C)[C@@H]1NC(=O)[C@H](CC(C)C)N(C)C(=O)[C@H](C(C)C)N(C)C(=O)[C@H](Cc2ccccc2)N(C)C(=O)[C@H](CC(C)C)NC(=O)[C@H](C)N(C)C(=O)[C@H](C)N(C)C(=O)[C@H]([C@@H](C)O)NC(=O)[C@H](Cc2ccccc2)N(C)C(=O)CN(C)C(=O)C[C@@H](C(=O)N(C)[C@@H](Cc2ccccc2)C(=O)N[C@@H](C)C(=O)N2CCCCC2)NC1=O [DP-186] ([Sar][NMeF]T[NMeA][NMeA]L[NMeF][NMeV][NMeL]ID[NMeF]A-Piperidide; lactam N-11),37
6,CC(C)C[C@H]1C(=O)N[C@H](C(=O)N(C)[C@@H](Cc2ccccc2)C(=O)N[C@@H](C)C(=O)N2CCCCC2)CC(=O)N(C)[C@@H](C)C(=O)N[C@@H]([C@@H](C)O)C(=O)N(C)[C@@H](Cc2ccccc2)C(=O)N(C)[C@@H](CC(C)C)C(=O)N(C)[C@@H](CC(C)C)C(=O)N[C@@H](C)C(=O)N(C)[C@@H](Cc2ccccc2)C(=O)N(C)[C@@H](CC(C)C)C(=O)N1C [DP-192] ([NMeA]T[NMeF][NMeL][NMeL]A[NMeF][NMeL][NMeL]D[NMeF]A-Piperidide; lactam N-10),0.64
7,CC(C)C[C@H]1C(=O)N[C@H](C(=O)N(C)[C@@H](Cc2ccccc2)C(=O)N(C)[C@@H](Cc2ccccc2)C(=O)N[C@@H](C)C(=O)N2CCCCC2)CC(=O)N(C)[C@@H](C)C(=O)N(C)[C@@H](C)C(=O)N(C)[C@@H](Cc2ccccc2)C(=O)N[C@@H]([C@@H](C)O)C(=O)N(C)[C@@H](C)C(=O)N(C)[C@@H](CC(C)C)C(=O)N(C)[C@@H](CC(C)C)C(=O)N[C@@H](C(C)C)C(=O)N1C [DP-206] ([NMeA][NMeA][NMeF]T[NMeA][NMeL][NMeL]V[NMeL]D[NMeF][NMeF]A-Piperidide; lactam N-10),9
8,CC(C)C[C@H]1C(=O)N[C@H](C(=O)N(C)[C@@H](Cc2ccccc2)C(=O)N(C)[C@@H](Cc2ccccc2)C(=O)N[C@@H](C)C(=O)N2CCCCC2)CC(=O)N[C@H](C(C)C)C(=O)N(C)[C@@H](Cc2ccccc2)C(=O)N(C)[C@@H](CC(C)C)C(=O)N[C@@H]([C@@H](C)O)C(=O)N(C)[C@@H](C)C(=O)N(C)[C@@H](CC(C)C)C(=O)N[C@@H](C(C)C)C(=O)N1C [DP-210] ([dV][NMeF][NMeL]T[NMeA][NMeL]V[NMeL]D[NMeF][NMeF]A-Piperidide; lactam N-9),1.8

# Assay: Metabolic stability in human hepatic microsome
# Type: in vitro ADME
# Details: human, microsomes, pH 7.4, CL NADPH(+)
row,SMILES,microsomal CLint at 1 uM [µL/min/mg]
1,CC[C@H](C)[C@H](NC(=O)[C@H](Cc1ccccc1)N(C)C(=O)[C@@H]1CC(=O)N(C)[C@@H](C)C(=O)N[C@@H](Cc2ccccc2)C(=O)N(C)[C@@H](CC(C)C)C(=O)N(C)[C@@H](CC(C)C)C(=O)N[C@@H](Cc2ccccc2)C(=O)N(C)[C@@H](CC(C)C)C(=O)N[C@@H]([C@@H](C)CC)C(=O)N2CCC[C@H]2C(=O)N[C@@H]([C@@H](C)O)C(=O)N[C@@H](CC(C)C)C(=O)N1)C(=O)N1CCCCC1 [DP-962] ([NMeA]F[NMeL][NMeL]F[NMeL]IPTLD[NMeF]I-Piperidide; lactam N-11),22
